From patent US11352396B2, “Antimicrobial peptides and methods of using same” (Zoetis Services LLC, priority 2017, dated 2022)
≈ marks a conversion by molar mass, not a printed value. Residues, ends and D or L forms follow the SMILES beside them.

What was measured:
[1] = test system: MSSP (Methicillin-Susceptible Staphylococcus pseudintermedius); assay: MIC against selected strains of MSSP; format: cell-based; design: key to MIC MSSP 84658 / MIC MSSP 86000 / MIC MSSP 71990 / MIC MSSP 72036 / MIC MSSP 78032: MIC in μM; key to MIC MSSP 86001 / MIC MSSP 72191 / MIC MSSP 76986 / MIC MSSP 77378: MIC in μM (first well with no visible growth); MIC MSSP 49051 / MIC MSSP 81923 / MIC MSSP 84250 / Effect on MSSP 86000 / Effect on MSSP 72036 / Effect on MSSP 78032: unit not given beside the values; Effect on MSSP 71990 / Effect on MSSP 86001 / Effect on MSSP 72191 / Effect on MSSP 76986 / Effect on MSSP 77378 / Effect on MSSP 81923 / Effect on MSSP 84250 / Effect on MSSP 84658: unit: µM; conditions: for MIC MSSP 49051: strain 49051, Table 3; for MIC MSSP 71990: strain 71990, Table 3; for MIC MSSP 72036: strain 72036, Table 3; for MIC MSSP 72191: strain 72191, Table 3; for MIC MSSP 76986: strain 76986, Table 3; for MIC MSSP 77378: strain 77378, Table 3; for MIC MSSP 78032: strain 78032, Table 3; for MIC MSSP 81923: strain 81923, Table 3; for MIC MSSP 84250: strain 84250, Table 3; for MIC MSSP 84658: strain 84658, Table 3; for MIC MSSP 86000: strain 86000, Table 3; for MIC MSSP 86001: strain 86001, Table 3
Method: (§1) Peptides according to SEQ ID NOs as listed in Table 1 were prepared by a commercial manufacturer (CS Bio, Menlo Park, Calif.) using solid phase synthesis. Antimicrobial activity was assessed by determining the Minimal Inhibitory Concentration (MIC) against S. aureus and E. coli. Briefly, Microbroth MICs were performed using CLSI methodology (VET01-S2). For S. aureus and E. coli ATCC strains, TSA with 5% lysed horse blood agar was used for overnight culturing at 37° C. ambient air. A 0.5 mM stock for each peptide was made with cell culture water, 0.01% acetic acid and serially diluted and spotted (10 μL) in a 96-well plate for in assay dose titration concentration of 50 μM to 0.05 μM. 0.5 McFarland Standard of each strain was diluted 1:250 in Mueller-Hinton Broth (MHB). 90 μL of culture suspension was then added upon drug in the 96-well plate for overnight incubation for 18-20 hours. The MIC was determined visually at the first well of no visible growth at the corresponding concentration.
(§2) Antimicrobial activity of the peptides listed in Table 2 against different strains of MSSP (Methicillin-Susceptible Staphylococcus pseudintermedius) and MRSP (Methicillin-Resistant Staphylococcus pseudintermedius) was further assessed. The results are in Tables 3 and 4, respectively.

[2] = test system: MRSP (Methicillin-Resistant Staphylococcus pseudintermedius); assay: MIC against selected strains of MRSP; format: cell-based; design: key to MIC MRSP 88493 / MIC MRSP 72035 / MIC MRSP 81926: MIC in μM; key to MIC MRSP 71994 / MIC MRSP 79882 / MIC MRSP 80729 / MIC MRSP 86002: MIC in μM (first well with no visible growth); key to MIC MRSP 72192 / MIC MRSP 76923 / MR 71994 / Mr 88493 / MR 72035 / MR 72192 / MR 76923 / MR 79882 / MR 80279 / MR 81926 / MR 86002 / MR 87665: MIC in μM (visual, first well with no growth); MIC MRSP 87655: unit not given beside the values; conditions: for MIC MRSP 71994: strain 71994, Table 4; for MIC MRSP 72035: strain 72035, Table 4; for MIC MRSP 72192: strain 72192, Table 4; for MIC MRSP 76923: strain 76923, Table 4; for MIC MRSP 79882: strain 79882, Table 4; for MIC MRSP 80729: strain 80729, Table 4; for MIC MRSP 81926: strain 81926, Table 4; for MIC MRSP 86002: strain 86002, Table 4; for MIC MRSP 87655: strain 87655, Table 4; for MIC MRSP 88493: strain 88493, Table 4
Method: as §1, §2

[3] = test system: Canine-derived epithelial keratinocyte (CPEK) cells; format: cell-based
Method: Safety of the peptides listed in table 2 was determining by measuring cell viability. Canine-derived epithelial keratinocyte (CPEK) cells were propagated to determine cell viability in the presence of peptides. Cells were grown from a frozen stock in CnT-09-5 (with supplements) pre-warmed media in a T75 flask and incubated overnight at 37° C., 5% CO2. Cells were washed with phosphate buffer and replenished with pre-warmed CnT-05-9 media and repeated for several days until cells reached a density of 6.6×10^4 cells/mL. Cells were then transferred to a 384 well plate, allowed to settle and dosed with peptides and melittin control peptide (50 μM to 0.05 μM) and incubated overnight at 37° C., 5% CO2. 0.1% TritonX100 as (HPE) and phosphate buffer alone as (ZPE) were added to the plates to calculate percent effect once the assay was terminated with 10 μL CELLTITER-GLO® assay reagents for a luminescent readout.

cRBC = format: cell-based, canine
Method: SEQ ID NO: 1 was selected for further research. Toxicity of SEQ ID NO: 1 to eukaryotic blood cells was compared to that of tachyplesin (SEQ ID NO: 13). A standard, well referenced red blood cell hemolysis assay was employed against multiple species to test the lysis potential of the peptides. Red blood cells (RBCs) were prepared and isolated by several centrifuge and wash steps to remove the plasma fraction. A dose titration (50 μM to 0.05 μM) of test peptides and control peptide melittin were spotted from 50 mM stocks in a 384 well plate. Prepared RBCs were incubated with peptide for one hour at 37° C. Percent hemolysis was measured by optical density at 405 nm and utilizing 1% TritonX100 as hundred percent effect (HPE) and phosphate buffer alone as zero percent effect (ZPE).

S. aureus ATCC 29213 = format: cell-based; design: key to SA 29213: MIC in μM (lowest conc. with no visible growth)
Method: as §1

E. coli ATCC 25922 = format: cell-based
Method: as §1

## 11 (KWCFRVCYRGICYRRCND; Artificial Antimicrobial peptide) [compound 11]
[1]
  MIC MSSP 49051: 0.8
  MIC MSSP 71990: 1.6
  MIC MSSP 72036: 0.8
  MIC MSSP 72191: 0.8
  MIC MSSP 76986: 0.8
  MIC MSSP 77378: 0.4
  MIC MSSP 78032: 0.8
  MIC MSSP 81923: 1.6
  MIC MSSP 84250: 0.8
  MIC MSSP 84658: 0.8
  MIC MSSP 86000: 0.4
  MIC MSSP 86001: 0.8
[2]
  MIC MRSP 71994: 1.6
  MIC MRSP 72035: 1.6
  MIC MRSP 72192: 0.8
  MIC MRSP 76923: 0.8
  MIC MRSP 79882: 0.8
  MIC MRSP 80729: 0.8
  MIC MRSP 81926: 0.8
  MIC MRSP 86002: 0.8
  MIC MRSP 87655: 0.8
  MIC MRSP 88493: 1.6
[3]
  CPEK (50 μM): 22.0
cRBC
  cRBC (50 μM): 57.8

## 28 (PKWCFRVCYRGICYRRCR; Artificial Antimicrobial peptide) [compound 28]
S. aureus ATCC 29213; S. aureus 29213, Table 6
  SA 29213: 6.2
E. coli ATCC 25922; E. coli 25922, Table 6
  EC 25922: 0.8 µM
[1]; S. pseudintermedius 49051, Table 6
  SP 49051: 1.6
[1]; strain 71990, Table 5
  Effect on MSSP 71990: 1.6
[1]; strain 72036, Table 5
  Effect on MSSP 72036: 1.6
[1]; strain 72191, Table 5
  Effect on MSSP 72191: 1.6
[1]; strain 76986, Table 5
  Effect on MSSP 76986: 0.8
[1]; strain 77378, Table 5
  Effect on MSSP 77378: 1.6
[1]; strain 78032, Table 5
  Effect on MSSP 78032: 1.6
[1]; strain 81923, Table 5
  Effect on MSSP 81923: 1.6
[1]; strain 84250, Table 5
  Effect on MSSP 84250: 1.6
[1]; strain 84658, Table 5
  Effect on MSSP 84658: 1.6
[1]; strain 86000, Table 5
  Effect on MSSP 86000: 1.6
[1]; strain 86001, Table 5
  Effect on MSSP 86001: 1.6
[2]; MRSP strain 71994, Table 6
  MR 71994: 1.6
[2]; MRSP strain 72035, Table 6
  MR 72035: 3.1
[2]; MRSP strain 72192, Table 6
  MR 72192: 3.1
[2]; MRSP strain 76923, Table 6
  MR 76923: 1.6
[2]; MRSP strain 79882, Table 6
  MR 79882: 0.8
[2]; MRSP strain 80279, Table 6
  MR 80279: 1.6
[2]; MRSP strain 81926, Table 6
  MR 81926: 1.6
[2]; MRSP strain 86002, Table 6
  MR 86002: 1.6
[2]; MRSP strain 87665, Table 6
  MR 87665: 1.6
[2]; MRSP strain 88493, Table 6
  Mr 88493: 1.6
[3]
  CPEK (50 μM): 19.4
cRBC
  cRBC (50 μM): 94.4

## 96 (KWCFRVCYGRICYRRCRD; Artificial Antimicrobial peptide) [compound 96]
[1]
  MIC MSSP 49051: 1.6
  MIC MSSP 71990: 1.6
  MIC MSSP 72036: 1.6
  MIC MSSP 72191: 1.6
  MIC MSSP 76986: 1.6
  MIC MSSP 77378: 0.8
  MIC MSSP 78032: 1.6
  MIC MSSP 81923: 1.6
  MIC MSSP 84250: 1.6
  MIC MSSP 84658: 1.6
  MIC MSSP 86000: 1.6
  MIC MSSP 86001: 1.6
[2]
  MIC MRSP 71994: 1.6
  MIC MRSP 72035: 1.6
  MIC MRSP 72192: 1.6
  MIC MRSP 76923: 1.6
  MIC MRSP 79882: 1.6
  MIC MRSP 80729: 1.6
  MIC MRSP 81926: 1.6
  MIC MRSP 86002: 1.6
  MIC MRSP 87655: 1.6
  MIC MRSP 88493: 1.6
[3]
  CPEK (50 μM): 51.9
cRBC
  cRBC (50 μM): 101.4

## CC(C)[C@H](NC(=O)[C@H](CS)NC(=O)[C@H](Cc1ccccc1)NC(=O)CNC(=O)[C@H](CC(N)=O)NC(=O)[C@H](CCCCN)NC(=O)[C@H](CS)NC(=O)[C@H](CCCCN)NC(=O)[C@H](CS)NC(=O)CNC(=O)[C@H](CCCCN)NC(=O)[C@@H](N)CCCNC(=N)N)C(=O)N[C@@H](CS)C(=O)N[C@@H](CCCNC(=N)N)C(N)=O [SEQ ID NO: 65, RKGCKCKNGFCVCR-NH2] (H-RKGCKCKNGFCVCR-NH2; N-terminus assumed)
S. aureus ATCC 29213
  MIC S. aureus ATCC 29213: 50 µM (≈ 80.1 µg/mL)
E. coli ATCC 25922
  MIC E. coli ATCC 25922: 6.25 µM (≈ 10 µg/mL)

## CC(C)C[C@H](NC(=O)[C@H](CCCNC(=N)N)NC(=O)CNC(=O)CNC(=O)[C@@H](N)CCCNC(=N)N)C(=O)N[C@@H](CS)C(=O)N[C@@H](Cc1ccc(O)cc1)C(=O)N[C@@H](CS)C(=O)N[C@@H](CCCNC(=N)N)C(=O)N[C@@H](CCCNC(=N)N)C(=O)N[C@@H](CCCNC(=N)N)C(=O)N[C@@H](Cc1ccccc1)C(=O)N[C@@H](CS)C(=O)N[C@H](C(=O)N[C@@H](CS)C(=O)N[C@H](C(=O)NCC(=O)N[C@@H](CCCNC(=N)N)C(=O)O)C(C)C)C(C)C [SEQ ID NO: 92, RGGRLCYCRRRFCVCVGR] (H-RGGRLCYCRRRFCVCVGR-OH; N-terminus and C-terminus assumed)
S. aureus ATCC 29213
  MIC S. aureus ATCC 29213: 3.1 µM (≈ 6.7 µg/mL)
E. coli ATCC 25922
  MIC E. coli ATCC 25922: 3.1 µM (≈ 6.7 µg/mL)
